Results reported in paper doi:10.1101/2024.05.30.596569v1 (bioRxiv, 2024).
Converted amounts (≈) assume the structure as drawn. Blank lines part the entries; values can stand above or below the compound they belong to.

Key:
A. baumannii ATCC 19606 = conditions: Mueller Hinton II broth, 5 × 10^5 cells mL^−1, 18h, turbidity 600 nm, triplicate
P. aeruginosa strains = conditions: cited from earlier work
E.c K0416 = experiment: microbe, parasite or virus in culture; conditions: Escherichia coli, K0416, read-out: Minimum inhibitory concentration, E.c K0416
[1] = pH 7.4
E.c ATCC25922 ΔTolC = conditions: Table S3, triplicate

Compound: C[C@@H](O)[C@H](NC(=O)[C@H]1NC(=O)[C@H]([C@@H](C)O)NC(=O)[C@H]2NC(=O)[C@H](CC(N)=O)NC(=O)[C@@H](N)Cc3c[nH]c4c(cccc34)OC2c2c[nH]c3cc(ccc23)C1CCCN)C(=O)N[C@@H](Cc1ccccc1)C(=O)O (stereo partly drawn) [WNWTKTF]
Minimum inhibitory concentration, Ab ATCC 19606 (A. baumannii ATCC 19606): no activity against A. baumannii

Compound: murepavadin
MIC90 against P. aeruginosa strains (P. aeruginosa strains): 0.12 µg/mL

MIC (E.c K0416): > 0.5 µg/mL
Compound: O=C(O)c1cn(C2CC2)c2cc(N3CCNCC3)c(F)cc2c1=O [CIP, ciprofloxacin]

Distribution coefficient (log D), logD7.4 [1]: 1.12
Compound: CO[C@H]1/C=C/O[C@@]2(C)Oc3c(C)c(O)c4c(O)c(c(/C=N/N5CCN(C)CC5)c(O)c4c3C2=O)NC(=O)/C(C)=C\C=C\[C@H](C)[C@H](O)[C@@H](C)[C@@H](O)[C@@H](C)[C@H](OC(C)=O)[C@@H]1C [Rifampicin]

MIC (E.c K0416): 4 µg/mL (≈ 8.38 µM)
Compound: CNC(C)C1CCC(N)C(OC2C(N)CC(N)C(OC3OCC(C)(O)C(NC)C3O)C2O)O1 (stereo not drawn) [GEN, gentamicin]
Minimum inhibitory concentration, E.c ATCC25922 ΔTolC (E.c ATCC25922 ΔTolC): 0.5 µg/mL (≈ 1.05 µM)

A-B permeability (Caco-2) (Caco-2 cells): 38.0 10^-6 cm s^-1 | B-A permeability (Caco-2) (Caco-2 cells): 17.2 10^-6 cm s^-1
Compound: CC(C)NCC(O)COc1cccc2ccccc12 (stereo not drawn) [Propranolol]

MIC (E.c K0416): 64 µg/mL (≈ 117 µM)
Compound: CC(C)(O/N=C(\C(=O)N[C@@H]1C(=O)N2C(C(=O)[O-])=C(C[n+]3ccccc3)CS[C@H]12)c1csc(N)n1)C(=O)O [CZA, ceftazidime]
